What was measured:
LNCaP95 = experiment: MTT proliferation assay, LNCaP95; format: cell-based; conditions: Homo sapiens, LNCaP-95; for EC50: Table 1, LNCaP95 (AR+ PCa), unit inferred; for inhibition at 10 µM: read-out: MTT % inhib @ 10 μM LNCaP95
Experimental: Anti-tumor activity was determined by screening a series of compounds against the castrate-resistant, androgen-receptor-positive, prostate cancer cell line LNCaP95. […] Inhibition of proliferation was determined based on the level of LNCaP95 cell growth suppression using an MTT assay (NAD(P)H-dependent cellular oxidoreductase enzymatic activities)) read at 72 and 96 hours after addition of the compounds. […] Each cell line was be tested in quadruplicate.

PC3 = experiment: MTT proliferation assay, PC3; conditions: Homo sapiens; for inhibition at 10 µM: PC-3, read-out: MTT % inhib @ 10 μM PC3; for EC50: read-out: EC50 PC3

SMILES | EC50 (LNCaP95) [µM] | EC50 (PC3) [µM] | inhibition at 10 µM (LNCaP95) [%] | inhibition at 10 µM (PC3) [%]
COCCOc1ncnc2c1c(-c1ccc3ccccc3c1)cn2CC(C)(C)O [Example 7, 1-(4-(2-methoxyethoxy)-5-(naphthalen-2-yl)-7H-pyrrolo[2,3-d]pyrimidin-7-yl)-2-methylpropan-2-ol] | 12 | > 20 | 23.9 | -36.2
C#CCCC1(CCOC(=O)NCCNc2ncnc3c2c(-c2ccc4cc(OCC)ccc4c2)cn3CC(C)(C)O)N=N1 [Example 10, 2-(3-(but-3-ynyl)-3H-diazirin-3-yl)ethyl 2-(5-(6-ethoxynaphthalen-2-yl)-7-(2-hydroxy-2-methylpropyl)-7H-pyrrolo[2,3-d]pyrimidin-4-ylamino)ethylcarbamate] | 2 | > 20 | – | –
CNc1ncnc2c1c(-c1cccc(C(C)C)c1)nn2CC(C)(C)O [Example 16, 1-(3-(3-isopropylphenyl)-4-(methylamino)-1H-pyrazolo[3,4-d]pyrimidin-1-yl)-2-methylpropan-2-ol] | > 15 | > 20 | 11.3 | -10.5
CNc1ncnc2c1c(-c1ccc(-c3ccccc3)cc1F)nn2CC(C)(C)O [Example 20, 1-(3-(3-fluorobiphenyl-4-yl)-4-(methylamino)-1H-pyrazolo[3,4-d]pyrimidin-1-yl)-2-methylpropan-2-ol] | > 20 | > 20 | 16.5 | 8.3
CC(C)(O)Cn1cc(-c2ccc3cc(OC4CC4)ccc3c2)c2c(NCCN)ncnc21 [Example 24, 1-(4-(2-aminoethylamino)-5-(6-cyclopropoxynaphthalen-2-yl)-7H-pyrrolo[2,3-d]pyrimidin-7-yl)-2-methylpropan-2-ol] | > 10 | > 20 | 35.1 | 6.7
CCOc1ccc2cc(-c3cn(CC(C)(C)O)c4ncnc(NCCO)c34)ccc2c1 [Example 25, 1-(5-(6-ethoxynaphthalen-2-yl)-4-(2-hydroxyethylamino)-7H-pyrrolo[2,3-d]pyrimidin-7-yl)-2-methylpropan-2-ol] | 5 | > 20 | 34.6 | 10.3
CC(C)(O)Cn1cc(-c2ccc3cc(OC4CC4)ccc3c2)c2c(NCCOCCN)ncnc21 [Example 27, 1-(4-(2-(2-aminoethoxy)ethylamino)-5-(6-cyclopropoxynaphthalen-2-yl)-7H-pyrrolo[2,3-d]pyrimidin-7-yl)-2-methylpropan-2-ol] | > 10 | > 20 | 8.6 | -5.2
CC(C)(O)Cn1cc(-c2ccc3cc(OC4CC4)ccc3c2)c2c(NCCOCCNC(=O)OC3CC/C=C/CCC3)ncnc21 (stereo not drawn) [Example 29, trans-cyclooct-4-enyl 2-(2-(5-(6-cyclopropoxynaphthalen-2-yl)-7-(2-hydroxy-2-methylpropyl)-7H-pyrrolo[2,3-d]pyrimidin-4-ylamino)ethoxy)ethylcarbamate] | 5 | > 20 | 33.7 | -31
CC(C)(O)Cn1cc(-c2ccc(-c3ccccc3)cc2)c2c(NCCO)ncnc21 [Example 30, 1-(5-(biphenyl-4-yl)-4-(2-hydroxyethylamino)-7H-pyrrolo[2,3d]pyrimidin-7-yl)-2-methylpropan-2-ol] | 4 | > 20 | 37.8 | -18.1
CCc1ccc(-c2ccc(-c3cn(CC(C)(C)OC)c4ncnc(NC)c34)cc2)cc1 [Example 34, 5-(4′-ethylbiphenyl-4-yl)-7-(2-methoxy-2-methylpropyl)-N-methyl-7H-pyrrolo[2,3-d]pyrimidin-4-amine] | 6 | > 20 | 29.7 | 9.1
CCOCCNc1ncnc2c1c(-c1ccc3cc(OC4CC4)ccc3c1)cn2CC(C)(C)O [Example 35, 1-(5-(6-cyclopropoxynaphthalen-2-yl)-4-(2-ethoxyethylamino)-7H-pyrrolo[2,3-d]pyrimidin-7-yl)-2-methylpropan-2-ol] | 4 | > 20 | 27.1 | 16.5
CCOCCNc1ncnc2c1c(-c1ccc3cc(OC(C)C)ccc3c1)cn2CC(C)(C)O [Example 36, 1-(4-(2-ethoxyethylamino)-5-(6-isopropoxynaphthalen-2-yl)-7H-pyrrolo[2,3-d]pyrimidin-7-yl)-2-methylpropan-2-ol] | 8 | > 20 | 22 | 15.7
CCOCCNc1ncnc2c1c(-c1ccc(-c3ccc(Br)cc3)cc1)cn2CC(C)(C)O [Example 40, 1-(5-(4′-bromobiphenyl-4-yl)-4-(2-ethoxyethylamino)-7H-pyrrolo[2,3-d]pyrimidin-7-yl)-2-methylpropan-2-ol] | > 10 | > 20 | -0.2 | 11.1
CCOc1ccc2cc(-c3cn(CC(C)(C)O)c4ncnc(NC5CC5)c34)ccc2c1 [Example 41, 1-(4-(cyclopropylamino)-5-(6-ethoxynaphthalen-2-yl)-7H-pyrrolo[2,3-d]pyrimidin-7-yl)-2-methylpropan-2-ol] | 6 | 10 | – | –
COc1ccc2cc(-c3cn(CC(C)(C)O)c4ncnc(NC5CC5)c34)ccc2c1 [Example 42, 1-(4-(cyclopropylamino)-5-(6-methoxynaphthalen-2-yl)-7H-pyrrolo[2,3-d]pyrimidin-7-yl)-2-methylpropan-2-ol] | 20 | > 20 | – | –
CCOc1ccc2cc(-c3cn(CC(C)(C)O)c4ncnc(NC(C)C)c34)ccc2c1 [Example 44, 1-(5-(6-ethoxynaphthalen-2-yl)-4-(isopropylamino)-7H-pyrrolo[2,3-d]pyrimidin-7-yl)-2-methylpropan-2-ol] | 5 | 20 | – | –

More lines, main results first:

EC50 (LNCaP95) [µM] | EC50 (PC3) [µM] | SMILES | inhibition at 10 µM (LNCaP95) [%] | inhibition at 10 µM (PC3) [%]
2.5 | 10 | CC(C)(O)Cn1cc(-c2ccc3cc(OC4CC4)ccc3c2)c2c(NC3CC3)ncnc21 [Example 17, 1-(5-(6-cyclopropoxynaphthalen-2-yl)-4-(cyclopropylamino)-7H-pyrrolo[2,3-d]pyrimidin-7-yl)-2-methylpropan-2-ol] | – | –
5 | > 20 | CNc1ncnc2c1c(-c1cccc(-c3ccccc3)c1)nn2CC(C)(C)O [Example 19, 1-(3-(biphenyl-3-yl)-4-(methylamino)-1H-pyrazolo[3,4-d]pyrimidin-1-yl)-2-methylpropan-2-ol] | 21.3 | 4.4
7 | > 20 | CNc1ncnc2c1c(-c1cccc(C(C)C)c1)cn2CC(C)(C)OC [Example 21, 5-(3-isopropylphenyl)-7-(2-methoxy-2-methylpropyl)-N-methyl-7H-pyrrolo[2,3-d]pyrimidin-4-amine] | -2.7 | -5.4
> 10 | > 20 | CCOc1ccc2cc(-c3cn(CC(C)(C)O)c4ncnc(NCCN)c34)ccc2c1 [Example 23, 1-(4-(2-aminoethylamino)-5-(6-ethoxynaphthalen-2-yl)-7H-pyrrolo[2,3-d]pyrimidin-7-yl)-2-methylpropan-2-ol] | 22.9 | 27.2
5 | > 20 | CC(C)(O)Cn1cc(-c2ccc3cc(OC4CC4)ccc3c2)c2c(NCCO)ncnc21 [Example 26, 1-(5-(6-cyclopropoxynaphthalen-2-yl)-4-(2-hydroxyethylamino)-7H-pyrrolo[2,3-d]pyrimidin-7-yl)-2-methylpropan-2-ol] | 40.6 | 9.2
> 10 | > 20 | CCOCCNc1ncnc2c1c(-c1ccc(-c3ccccc3)cc1)cn2CC(C)(C)O [Example 37, 1-(5-(biphenyl-4-yl)-4-(2-ethoxyethylamino)-7H-pyrrolo[2,3-d]pyrimidin-7-yl)-2-methylpropan-2-ol] | 8.4 | 9
4 | > 20 | CCOCCNc1ncnc2c1c(-c1ccc(-c3ccc(OC)cc3)cc1)cn2CC(C)(C)O [Example 38, 1-(4-(2-ethoxyethylamino)-5-(4′-methoxybiphenyl-4-yl)-7H-pyrrolo[2,3-d]pyrimidin-7-yl)-2-methylpropan-2-ol] | 39.5 | 11.6
> 10 | > 20 | CCOCCNc1ncnc2c1c(-c1ccc(-c3ccc(CC)cc3)cc1)cn2CC(C)(C)O [Example 39, 1-(4-(2-ethoxyethylamino)-5-(4′-ethylbiphenyl-4-yl)-7H-pyrrolo[2,3-d]pyrimidin-7-yl)-2-methylpropan-2-ol] | 29.2 | 8.3
10 | 20 | CC(C)Nc1ncnc2c1c(-c1ccc3cc(OC4CC4)ccc3c1)cn2CC(C)(C)O [Example 43, 1-(5-(6-cyclopropoxynaphthalen-2-yl)-4-(isopropylamino)-7H-pyrrolo[2,3-d]pyrimidin-7-yl)-2-methylpropan-2-ol] | – | –
5 | > 20 | COc1ccc2cc(-c3cn(CC(C)(C)O)c4ncnc(NC(C)C)c34)ccc2c1 [Example 45, 1-(4-(isopropylamino)-5-(6-methoxynaphthalen-2-yl)-7H-pyrrolo[2,3-d]pyrimidin-7-yl)-2-methylpropan-2-ol] | – | –
